# Test results from ChEMBL document CHEMBL1201862, “PubChem BioAssay data set” (2004).
# Activity calls are given as the source filed them.
# Tests used:
# [1] = target: Cytochrome P450 2C19 (Homo sapiens, UniProt P33261); assay: Cytochrome panel assay with activity outcomes. Panel member name: p450-cyp2c19 Compounds with AC50 equal or less than 10 uM are considered active; format: functional
# [2] = target: Cytochrome P450 2D6 (Homo sapiens, UniProt P10635);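 note: CYP2D6 member of a cytochrome P450 panel assay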
# [3] = target: Cytochrome P450 3A4 (Homo sapiens, UniProt P08684);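 note: CYP3A4 tested as one member of a cytochrome P450 panel screen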
# [4] = target: Voltage-dependent T-type calcium channel subunit alpha-1H (Homo sapiens, UniProt O95180); format: functional;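 note: channel activity triggered by adding a high calcium stimulation buffer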
# [5] = tested on: HeLa; assay: ATP-based viability loss in HeLa cells – cell-based, CellTiter-Glo luminescence, cherry-pick samples, cytotoxicity control for MITF activator project, dose response (AID 540259); format: functional; conditions: Homo sapiens
# [6] = target: T1, Cytochrome P450 1A2 (Homo sapiens, UniProt P05177)
# T1 sequence (P05177 whole entry): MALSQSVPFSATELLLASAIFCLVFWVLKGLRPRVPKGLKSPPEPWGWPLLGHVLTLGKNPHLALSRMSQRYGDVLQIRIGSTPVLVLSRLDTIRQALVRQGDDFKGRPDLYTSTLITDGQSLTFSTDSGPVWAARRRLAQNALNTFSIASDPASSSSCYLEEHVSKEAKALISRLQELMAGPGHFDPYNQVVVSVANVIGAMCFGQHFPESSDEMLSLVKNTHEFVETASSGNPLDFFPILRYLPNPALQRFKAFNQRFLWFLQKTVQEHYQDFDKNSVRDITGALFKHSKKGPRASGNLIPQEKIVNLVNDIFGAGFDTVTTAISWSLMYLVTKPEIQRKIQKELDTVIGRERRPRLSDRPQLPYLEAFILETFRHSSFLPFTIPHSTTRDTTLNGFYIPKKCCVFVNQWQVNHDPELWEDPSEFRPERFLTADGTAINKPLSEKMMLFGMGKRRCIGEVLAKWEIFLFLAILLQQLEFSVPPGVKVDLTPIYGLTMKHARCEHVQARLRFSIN
# Sequence of Cytochrome P450 3A4 (P08684 whole entry): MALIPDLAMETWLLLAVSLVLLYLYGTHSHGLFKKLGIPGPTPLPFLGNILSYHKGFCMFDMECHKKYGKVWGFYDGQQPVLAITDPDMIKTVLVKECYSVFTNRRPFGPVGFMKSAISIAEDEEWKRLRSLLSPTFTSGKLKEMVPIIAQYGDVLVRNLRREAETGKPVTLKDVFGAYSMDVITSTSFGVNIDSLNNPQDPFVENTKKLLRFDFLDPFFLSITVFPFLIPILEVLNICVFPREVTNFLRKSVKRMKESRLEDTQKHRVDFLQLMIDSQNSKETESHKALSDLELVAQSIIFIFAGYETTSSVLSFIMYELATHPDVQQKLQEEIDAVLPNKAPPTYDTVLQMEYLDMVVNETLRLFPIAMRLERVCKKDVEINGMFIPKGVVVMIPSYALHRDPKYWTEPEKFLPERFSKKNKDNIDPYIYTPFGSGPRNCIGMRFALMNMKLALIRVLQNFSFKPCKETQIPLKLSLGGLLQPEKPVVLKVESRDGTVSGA
# Sequence of Cytochrome P450 2D6 (P10635 whole entry): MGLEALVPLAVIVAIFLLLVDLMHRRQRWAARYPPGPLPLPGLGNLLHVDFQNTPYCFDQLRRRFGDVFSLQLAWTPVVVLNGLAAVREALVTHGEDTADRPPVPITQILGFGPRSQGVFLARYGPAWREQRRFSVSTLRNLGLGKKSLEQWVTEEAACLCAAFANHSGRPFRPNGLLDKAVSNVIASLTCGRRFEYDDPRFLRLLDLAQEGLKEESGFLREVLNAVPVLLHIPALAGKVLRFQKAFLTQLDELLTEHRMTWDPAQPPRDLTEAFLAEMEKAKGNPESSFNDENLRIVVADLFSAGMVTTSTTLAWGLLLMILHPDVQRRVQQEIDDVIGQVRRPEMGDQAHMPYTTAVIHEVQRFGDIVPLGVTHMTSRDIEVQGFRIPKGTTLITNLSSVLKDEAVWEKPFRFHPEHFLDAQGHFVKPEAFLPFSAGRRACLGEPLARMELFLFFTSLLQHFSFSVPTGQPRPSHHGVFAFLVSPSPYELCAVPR
# Sequence of Cytochrome P450 2C19 (P33261 whole entry): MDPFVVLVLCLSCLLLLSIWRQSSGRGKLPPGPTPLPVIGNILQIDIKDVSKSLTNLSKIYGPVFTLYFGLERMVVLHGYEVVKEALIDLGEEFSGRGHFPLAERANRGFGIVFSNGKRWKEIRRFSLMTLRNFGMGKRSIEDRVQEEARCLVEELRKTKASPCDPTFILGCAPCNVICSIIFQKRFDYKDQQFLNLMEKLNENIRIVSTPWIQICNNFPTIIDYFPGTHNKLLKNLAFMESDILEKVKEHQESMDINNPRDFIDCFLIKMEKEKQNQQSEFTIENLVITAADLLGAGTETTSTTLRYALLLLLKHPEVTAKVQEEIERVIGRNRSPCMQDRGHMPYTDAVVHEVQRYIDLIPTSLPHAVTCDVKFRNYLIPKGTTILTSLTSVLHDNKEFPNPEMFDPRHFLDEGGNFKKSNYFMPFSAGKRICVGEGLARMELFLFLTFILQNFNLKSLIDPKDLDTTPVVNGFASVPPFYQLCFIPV
# Sequence of Voltage-dependent T-type calcium channel subunit alpha-1H (O95180 whole entry): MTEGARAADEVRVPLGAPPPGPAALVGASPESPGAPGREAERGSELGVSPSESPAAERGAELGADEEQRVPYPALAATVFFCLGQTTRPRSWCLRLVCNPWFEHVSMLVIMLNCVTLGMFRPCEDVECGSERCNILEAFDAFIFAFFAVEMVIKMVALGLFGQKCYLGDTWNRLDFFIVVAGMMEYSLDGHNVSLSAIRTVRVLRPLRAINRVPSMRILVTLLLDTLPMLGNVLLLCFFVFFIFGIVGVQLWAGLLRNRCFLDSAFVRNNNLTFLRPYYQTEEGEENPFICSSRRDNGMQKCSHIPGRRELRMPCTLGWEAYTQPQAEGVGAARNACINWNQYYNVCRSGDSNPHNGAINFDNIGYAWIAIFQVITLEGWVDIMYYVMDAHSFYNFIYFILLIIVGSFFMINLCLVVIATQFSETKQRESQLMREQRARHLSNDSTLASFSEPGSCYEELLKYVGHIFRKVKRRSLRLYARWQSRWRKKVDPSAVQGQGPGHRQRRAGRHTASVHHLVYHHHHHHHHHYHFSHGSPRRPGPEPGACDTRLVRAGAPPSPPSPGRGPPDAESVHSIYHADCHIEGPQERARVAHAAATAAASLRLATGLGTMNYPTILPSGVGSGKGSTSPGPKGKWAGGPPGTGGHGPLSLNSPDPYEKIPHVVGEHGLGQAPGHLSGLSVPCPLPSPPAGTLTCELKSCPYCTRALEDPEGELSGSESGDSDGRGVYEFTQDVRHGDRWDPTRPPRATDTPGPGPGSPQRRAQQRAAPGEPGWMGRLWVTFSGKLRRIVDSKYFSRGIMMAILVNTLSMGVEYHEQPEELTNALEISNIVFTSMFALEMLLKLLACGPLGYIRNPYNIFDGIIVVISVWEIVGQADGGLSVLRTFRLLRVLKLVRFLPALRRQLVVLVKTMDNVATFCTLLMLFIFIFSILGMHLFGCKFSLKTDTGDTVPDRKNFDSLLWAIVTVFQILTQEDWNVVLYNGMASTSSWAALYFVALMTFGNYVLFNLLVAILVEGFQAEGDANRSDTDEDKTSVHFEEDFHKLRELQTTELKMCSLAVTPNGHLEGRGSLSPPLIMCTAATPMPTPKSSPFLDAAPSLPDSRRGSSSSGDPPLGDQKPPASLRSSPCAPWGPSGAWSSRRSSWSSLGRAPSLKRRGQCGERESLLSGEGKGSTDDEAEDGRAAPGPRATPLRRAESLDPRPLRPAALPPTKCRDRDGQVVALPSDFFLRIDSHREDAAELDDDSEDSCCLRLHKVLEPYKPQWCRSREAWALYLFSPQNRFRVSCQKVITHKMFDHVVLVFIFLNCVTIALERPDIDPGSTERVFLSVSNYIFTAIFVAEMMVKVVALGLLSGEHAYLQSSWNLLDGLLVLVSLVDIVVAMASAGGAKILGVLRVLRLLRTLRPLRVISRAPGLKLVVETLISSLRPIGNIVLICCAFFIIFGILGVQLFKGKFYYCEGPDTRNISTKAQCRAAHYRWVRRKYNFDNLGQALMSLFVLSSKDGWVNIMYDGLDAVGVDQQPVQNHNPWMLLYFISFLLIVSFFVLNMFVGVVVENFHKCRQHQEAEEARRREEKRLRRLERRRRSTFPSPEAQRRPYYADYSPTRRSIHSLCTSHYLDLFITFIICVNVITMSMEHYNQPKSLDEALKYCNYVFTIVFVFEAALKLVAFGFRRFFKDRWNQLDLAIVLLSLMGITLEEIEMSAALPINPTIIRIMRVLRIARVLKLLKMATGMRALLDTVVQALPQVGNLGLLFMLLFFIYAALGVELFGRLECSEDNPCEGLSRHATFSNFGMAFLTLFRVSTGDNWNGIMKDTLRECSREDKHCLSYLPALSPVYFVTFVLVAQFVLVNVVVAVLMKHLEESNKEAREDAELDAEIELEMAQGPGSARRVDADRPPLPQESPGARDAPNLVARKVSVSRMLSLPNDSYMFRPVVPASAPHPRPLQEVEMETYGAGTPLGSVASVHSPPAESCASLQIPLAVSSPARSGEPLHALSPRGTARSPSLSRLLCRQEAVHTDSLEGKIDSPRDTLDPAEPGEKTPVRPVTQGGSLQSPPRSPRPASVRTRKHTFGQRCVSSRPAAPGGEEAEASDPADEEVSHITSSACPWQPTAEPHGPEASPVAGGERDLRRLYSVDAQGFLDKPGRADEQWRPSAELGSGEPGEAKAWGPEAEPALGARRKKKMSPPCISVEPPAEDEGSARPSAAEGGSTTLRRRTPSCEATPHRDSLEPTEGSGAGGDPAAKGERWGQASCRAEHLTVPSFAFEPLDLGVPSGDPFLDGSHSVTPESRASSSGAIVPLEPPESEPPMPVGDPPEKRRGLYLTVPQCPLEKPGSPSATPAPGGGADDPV
SMILES,AC50 [2],AC50 [3],AC50 [5],other results
CC(C)NC(=O)N1CCCC2(CCN(C(=O)c3cccc(F)c3)CC2)C1,inconclusive,25.1 µM (inconclusive),,AC50 [1]: inconclusive
Cc1ccc(-c2nnn(CC(=O)N(c3ccccc3)C(C(=O)NCC3CCCO3)c3ccc(Cl)cc3)n2)cc1 (configuration not stated),inconclusive,39.8 µM (inconclusive),,AC50 ([1]; read-out: AC50): 1.12 µM (inconclusive); EC50 [4]: 11.1 µM (active)
Cc1nc(-c2noc(-c3ccccc3Cl)n2)c(C(F)(F)F)o1,,,291 µM (active),
CCOC(=O)NCN1C(=O)C2C3C=CC(C3)C2C1=O (configuration not stated),inconclusive,6.31 µM (inconclusive),,AC50 [6]: 14.1 µM (inconclusive)
Cc1ccc(/C=N/c2sc3c(c2C#N)CCC3)s1,,,82 µM (active),
